The numbers were not newly measured in patent publication US8449914B2, “Controlled release carvedilol compositions” (Egalet Ltd., priority 2002, dated 2013), which cites them from elsewhere.

Read-outs that look alike come from different tables or passages of the source.

Data set [1] deals with beta-adrenoreceptor. The note with it: humans.
The next data set concerns alpha1-adrenoreceptor. The note with it: IR formulation.
Test in data set [2]: not given
The source holds these as a separate data set.

Data set [3] concerns beta-adrenoreceptor. The note with it: preclinical studies.

As for `COc1ccccc1OCCNCC(O)COc1cccc2[nH]c3ccccc3c12` (racemic) [Carvedilol], the solubility entry reads like this: (95% ethanol) “sparingly soluble”; (dimethylsulfoxide) “freely soluble”; (ethyl ether) “slightly soluble”; (gastric fluid (simulated, TS, pH1.1)) “practically insoluble”; (intestinal fluid (simulated, TS without pancreatin, pH 7.5)) “practically insoluble”; (isopropanol) “sparingly soluble”. Besides, the solubility entry (methanol) was “soluble”, the solubility entry (methylene chloride) was “soluble” and the solubility entry (water) is reported as “practically insoluble”. Moreover, the “time after administration at which beta-blocking actions are evident” value in the data set on beta-adrenoreceptor [1] is given as “one”. Also, in the data set on alpha1-adrenoreceptor, the “time after administration at which alpha-mediated vasodilatory effects are evident” value was not above 30 min. Moreover, in data set [2] (in vivo), the “steady-state volume of distribution” value is “approximately 115 L”. The “absorption in the large intestine, share of the total absorption” value in data set [2] (timed-release capsules, study by Nolte et al) was “approximately 10%”.

As for `COc1cc(O)ccc1OCCNCC(O)COc1cccc2[nH]c3ccccc3c12` (centres unmarked) [4′-hydroxyphenyl metabolite, 4′-hydroxy carvedilol], the “potency for beta-blockade relative to carvedilol” value with beta-adrenoreceptor [3] is listed as “approximately 13 times”.

Consider `COc1ccccc1OCCNC[C@@H](O)COc1cccc2[nH]c3ccccc3c12` [R(+)-carvedilol], for which, in data set [2] (in vivo), the “mean apparent terminal elimination half-lives” value is 5 to 9 h and the “plasma concentrations in poor metabolizers of debrisoquin compared to extensive metabolizers” value is on record as 2-3 fold.

Consider `COc1ccccc1OCCNC[C@H](O)COc1cccc2[nH]c3ccccc3c12` [S(−)-carvedilol], for which, in data set [2] (in vivo), the “mean apparent terminal elimination half-lives” value was 7 to 11 h.
